Our source for the IC50 values is patent US20230310428A1, “EGFR INHIBITOR AND PREPARATION METHOD AND USE THEREOF” (HONGYUN BIOTECH CO., LTD., priority 2020, published 2023).

What all share (experiment): Growth inhibitory activity of compounds on BaF3 cell lines stably transfected with kinase (MTS, 48 h)
What all share (assay type): cell-based

Assay [1] has as its target T1, various mutants of kinase EGFR (BaF3 cell lines stably transfected with kinase) (Homo sapiens, UniProt P00533).
T1 construct: other: BaF3 cells stably transfected with EGFR Δ19Del; MTS, 48 h; other: BaF3 cell line stably transfected with EGFR Δ19Del
The conditions noted are these: BaF3 cells stably transfected with EGFR Δ19Del, read-out: IC50, growth inhibition, Δ19Del. Here is the method: (§1) The activity of compounds against various mutants of kinase EGFR was evaluated by their effect of inhibiting growth of BaF3 cell lines stably transfected with kinase. The specific test method was given as follows:
(§2) 1) Culture medium: DMEM (Dulbecco’s modified eagle medium) or RPMI 1640 (containing 10% fetal bovine serum, 100 µg/mL ampicillin, 100 µg/mL streptomycin).
(§3) 2) Reagent: MTS reaction solution (containing 2 mg/mL of MTS [3-(4,5-dimethylthiazol-2-yl)-5-(3-carboxymethoxyphenyl)-2-(4-sulfophenyl)-2H-tetrazoliu m, inner Salt]; 100 µg/mL of PES ([…])).
(§4) 3) Compound test: cells were incubated into a 96-well culture plate, the volume of cytosol was 90 µL, and then 10 µL of the compound at each gradient concentration was added. That is, the highest concentration was 10 µM, which was diluted stepwise by ⅓, and 8 concentration points were set in total; 0.1% DMSO (dimethyl sulfoxide) was contained in the system. The cell plate with uniformly mixed compound was cultured in a cell culture incubator (37° C.; 5% CO2) for 48 h, then 20 µL of MTS reaction solution was added, uniformly mixed and incubated in the cell culture incubator (37° C.; 5% CO2) for 1-4 h. OD values at 490 nm were measured by a microplate reader (VARIOSKAN FLASH, Thermo). Two parallels were set in each group of experiments, with 0.1% (a final concentration) DMSO as a negative control, and a culture medium without cells and compounds as a blank control. The cell growth inhibition rate was calculated by the following formula: […]
(§5) 4) IC50 calculation: The semi-inhibitory concentration of the compounds acting on cells was calculated using GradPad Prism 5 software according to the measured cell growth inhibition rate.

Assay [2] concerns the target T2, various mutants of kinase EGFR (BaF3 cell lines stably transfected with kinase) (Homo sapiens, UniProt P00533, C797S/L858R/T790M).
T2 construct: expressed in transfected cells; host or cells: BaF3
The conditions noted are these: BaF3 cells stably transfected with EGFR L858R/T790M/C797S, read-out: IC50, growth inhibition, L858R/T790M/C797S. As for the experimental part:
as §1, §2, §3, §4, §5

For assay [3], the target named is T3, various mutants of kinase EGFR (BaF3 cell lines stably transfected with kinase) (Homo sapiens, UniProt P00533, L858R).
T3 construct: expressed in transfected cells; host or cells: BaF3
As to conditions: BaF3 cells stably transfected with EGFR L858R, read-out: IC50, growth inhibition, L858R. Here is the method:
as §1, §2, §3, §4, §5

In assay [4] the target is T4, various mutants of kinase EGFR (BaF3 cell lines stably transfected with kinase) (Homo sapiens, UniProt P00533, L858R/T790M).
T4 construct: expressed in transfected cells; host or cells: BaF3
T4 sequence (P00533 25-1210 T790M/L858R): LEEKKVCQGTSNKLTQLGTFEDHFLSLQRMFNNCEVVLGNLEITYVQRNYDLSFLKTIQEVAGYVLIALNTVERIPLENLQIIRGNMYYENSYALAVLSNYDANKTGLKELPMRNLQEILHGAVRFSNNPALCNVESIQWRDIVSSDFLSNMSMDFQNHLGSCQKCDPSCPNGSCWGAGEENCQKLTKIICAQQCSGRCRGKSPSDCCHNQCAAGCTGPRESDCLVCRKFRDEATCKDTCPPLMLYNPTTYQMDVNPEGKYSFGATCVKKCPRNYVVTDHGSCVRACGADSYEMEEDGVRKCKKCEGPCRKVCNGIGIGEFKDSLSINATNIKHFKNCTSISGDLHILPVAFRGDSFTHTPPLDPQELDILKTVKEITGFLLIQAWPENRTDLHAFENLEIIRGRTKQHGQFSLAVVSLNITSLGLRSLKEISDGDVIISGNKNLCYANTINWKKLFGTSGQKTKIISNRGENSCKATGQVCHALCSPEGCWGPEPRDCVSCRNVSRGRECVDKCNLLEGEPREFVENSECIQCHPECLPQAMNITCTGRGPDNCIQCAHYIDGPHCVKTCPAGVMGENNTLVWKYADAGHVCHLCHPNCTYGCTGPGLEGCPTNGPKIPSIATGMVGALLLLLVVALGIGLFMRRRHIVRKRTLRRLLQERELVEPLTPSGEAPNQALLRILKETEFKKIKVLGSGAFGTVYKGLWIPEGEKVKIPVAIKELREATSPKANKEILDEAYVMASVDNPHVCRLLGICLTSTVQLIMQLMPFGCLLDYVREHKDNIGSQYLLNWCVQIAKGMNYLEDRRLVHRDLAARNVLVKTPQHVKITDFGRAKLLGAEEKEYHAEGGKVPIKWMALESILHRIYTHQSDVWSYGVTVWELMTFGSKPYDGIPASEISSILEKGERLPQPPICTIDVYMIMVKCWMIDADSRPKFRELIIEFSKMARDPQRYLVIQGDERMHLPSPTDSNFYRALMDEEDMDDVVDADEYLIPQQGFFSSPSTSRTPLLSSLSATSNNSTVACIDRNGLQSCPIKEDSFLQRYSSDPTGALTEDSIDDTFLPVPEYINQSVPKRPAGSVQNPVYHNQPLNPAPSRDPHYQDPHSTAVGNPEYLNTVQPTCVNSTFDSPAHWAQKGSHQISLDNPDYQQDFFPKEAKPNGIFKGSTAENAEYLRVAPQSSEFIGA
As to conditions: BaF3 cells stably transfected with EGFR L858R/T790M, read-out: IC50, growth inhibition, L858R/T790M. Here is the method:
as §1, §2, §3, §4, §5

Assay [5] addresses T5, various mutants of kinase EGFR (BaF3 cell lines stably transfected with kinase) (Homo sapiens, UniProt P00533, T790M/C797S, form not given).
T5 construct: other: BaF3 cells stably transfected with EGFR Δ19Del/T790M/C797S; MTS, 48; other: BaF3 cell line stably transfected with EGFR Δ19Del/T790M/C7
The conditions noted are these: BaF3 cells stably transfected with EGFR Δ19Del/T790M/C797S, read-out: IC50, growth inhibition, Δ19Del/T790M/C797S. As for the experimental part:
as §1, §2, §3, §4, §5

Assay [6] deals with T6, various mutants of kinase EGFR (BaF3 cell lines stably transfected with kinase) (Homo sapiens, UniProt P00533, T790M, form not given).
T6 construct: other: BaF3 cells stably transfected with EGFR Δ19Del/T790M; MTS, 48 h; other: BaF3 cell line stably transfected with EGFR Δ19Del/T790M; MTS, 48
T6 sequence (P00533 with tags, fused parts or gaps DEL746-750/T790M, form open): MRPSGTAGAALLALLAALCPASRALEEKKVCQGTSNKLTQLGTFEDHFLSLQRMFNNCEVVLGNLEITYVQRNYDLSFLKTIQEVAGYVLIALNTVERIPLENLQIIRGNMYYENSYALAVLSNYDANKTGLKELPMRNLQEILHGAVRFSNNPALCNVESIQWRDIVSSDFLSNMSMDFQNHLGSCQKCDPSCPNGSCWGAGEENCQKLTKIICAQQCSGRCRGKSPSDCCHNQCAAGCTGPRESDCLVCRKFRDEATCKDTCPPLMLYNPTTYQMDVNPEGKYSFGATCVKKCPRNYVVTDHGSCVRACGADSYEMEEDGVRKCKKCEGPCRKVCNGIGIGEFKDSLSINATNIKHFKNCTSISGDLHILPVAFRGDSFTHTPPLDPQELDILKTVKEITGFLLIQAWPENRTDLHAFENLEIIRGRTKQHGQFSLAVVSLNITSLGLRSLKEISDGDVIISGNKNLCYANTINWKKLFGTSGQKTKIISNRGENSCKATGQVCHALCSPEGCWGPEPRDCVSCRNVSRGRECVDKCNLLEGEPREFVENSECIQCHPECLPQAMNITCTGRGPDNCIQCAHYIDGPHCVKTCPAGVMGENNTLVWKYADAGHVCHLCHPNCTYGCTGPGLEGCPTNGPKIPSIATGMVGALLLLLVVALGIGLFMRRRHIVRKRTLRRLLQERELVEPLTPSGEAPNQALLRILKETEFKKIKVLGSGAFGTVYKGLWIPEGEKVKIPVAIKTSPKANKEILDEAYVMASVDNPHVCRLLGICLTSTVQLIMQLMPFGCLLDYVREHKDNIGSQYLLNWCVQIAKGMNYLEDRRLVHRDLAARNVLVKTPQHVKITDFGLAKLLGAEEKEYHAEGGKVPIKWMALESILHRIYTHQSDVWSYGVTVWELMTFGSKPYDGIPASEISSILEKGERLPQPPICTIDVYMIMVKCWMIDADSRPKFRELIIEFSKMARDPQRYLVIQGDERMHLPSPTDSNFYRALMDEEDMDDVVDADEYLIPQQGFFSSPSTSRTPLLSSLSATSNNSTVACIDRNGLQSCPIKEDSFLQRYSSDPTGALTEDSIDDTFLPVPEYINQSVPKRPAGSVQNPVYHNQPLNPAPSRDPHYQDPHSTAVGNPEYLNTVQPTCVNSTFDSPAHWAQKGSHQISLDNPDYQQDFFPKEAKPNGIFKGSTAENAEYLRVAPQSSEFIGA
The conditions noted are these: BaF3 cells stably transfected with EGFR Δ19Del/T790M, read-out: IC50, growth inhibition, Δ19Del/T790M. Here is the method:
as §1, §2, §3, §4, §5

T5 sequence (P00533 with tags, fused parts or gaps DEL746-750/T790M/C797S, form open): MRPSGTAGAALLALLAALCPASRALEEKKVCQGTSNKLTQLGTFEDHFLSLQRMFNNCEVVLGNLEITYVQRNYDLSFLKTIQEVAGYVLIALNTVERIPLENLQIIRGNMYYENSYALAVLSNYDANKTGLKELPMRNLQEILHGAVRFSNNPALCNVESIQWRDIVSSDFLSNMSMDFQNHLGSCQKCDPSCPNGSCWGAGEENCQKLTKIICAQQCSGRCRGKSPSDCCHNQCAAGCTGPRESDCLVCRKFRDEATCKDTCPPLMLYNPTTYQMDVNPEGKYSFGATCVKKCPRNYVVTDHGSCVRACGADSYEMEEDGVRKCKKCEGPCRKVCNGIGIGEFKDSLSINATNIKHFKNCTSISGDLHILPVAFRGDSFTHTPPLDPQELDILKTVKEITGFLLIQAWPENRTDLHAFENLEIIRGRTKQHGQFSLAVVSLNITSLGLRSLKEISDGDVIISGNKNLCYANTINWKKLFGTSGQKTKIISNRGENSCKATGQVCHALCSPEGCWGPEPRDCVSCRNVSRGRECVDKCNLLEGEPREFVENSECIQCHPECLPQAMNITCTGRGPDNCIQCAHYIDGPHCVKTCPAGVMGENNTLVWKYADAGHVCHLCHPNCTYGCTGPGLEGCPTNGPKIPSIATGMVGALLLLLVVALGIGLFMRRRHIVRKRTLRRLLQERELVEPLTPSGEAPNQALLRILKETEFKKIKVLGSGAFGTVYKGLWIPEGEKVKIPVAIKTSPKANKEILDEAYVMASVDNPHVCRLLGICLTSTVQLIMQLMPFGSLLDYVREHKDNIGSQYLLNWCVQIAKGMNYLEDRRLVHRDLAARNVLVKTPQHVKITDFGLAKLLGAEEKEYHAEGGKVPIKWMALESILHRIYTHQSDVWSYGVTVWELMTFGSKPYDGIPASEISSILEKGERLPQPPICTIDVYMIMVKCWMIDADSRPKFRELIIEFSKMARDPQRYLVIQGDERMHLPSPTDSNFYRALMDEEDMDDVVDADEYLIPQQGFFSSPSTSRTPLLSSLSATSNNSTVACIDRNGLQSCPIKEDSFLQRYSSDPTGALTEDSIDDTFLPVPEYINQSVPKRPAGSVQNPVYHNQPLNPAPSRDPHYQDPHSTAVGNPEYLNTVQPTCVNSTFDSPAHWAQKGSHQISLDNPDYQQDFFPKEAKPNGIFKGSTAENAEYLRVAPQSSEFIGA
T2 sequence (P00533 25-1210 T790M/C797S/L858R): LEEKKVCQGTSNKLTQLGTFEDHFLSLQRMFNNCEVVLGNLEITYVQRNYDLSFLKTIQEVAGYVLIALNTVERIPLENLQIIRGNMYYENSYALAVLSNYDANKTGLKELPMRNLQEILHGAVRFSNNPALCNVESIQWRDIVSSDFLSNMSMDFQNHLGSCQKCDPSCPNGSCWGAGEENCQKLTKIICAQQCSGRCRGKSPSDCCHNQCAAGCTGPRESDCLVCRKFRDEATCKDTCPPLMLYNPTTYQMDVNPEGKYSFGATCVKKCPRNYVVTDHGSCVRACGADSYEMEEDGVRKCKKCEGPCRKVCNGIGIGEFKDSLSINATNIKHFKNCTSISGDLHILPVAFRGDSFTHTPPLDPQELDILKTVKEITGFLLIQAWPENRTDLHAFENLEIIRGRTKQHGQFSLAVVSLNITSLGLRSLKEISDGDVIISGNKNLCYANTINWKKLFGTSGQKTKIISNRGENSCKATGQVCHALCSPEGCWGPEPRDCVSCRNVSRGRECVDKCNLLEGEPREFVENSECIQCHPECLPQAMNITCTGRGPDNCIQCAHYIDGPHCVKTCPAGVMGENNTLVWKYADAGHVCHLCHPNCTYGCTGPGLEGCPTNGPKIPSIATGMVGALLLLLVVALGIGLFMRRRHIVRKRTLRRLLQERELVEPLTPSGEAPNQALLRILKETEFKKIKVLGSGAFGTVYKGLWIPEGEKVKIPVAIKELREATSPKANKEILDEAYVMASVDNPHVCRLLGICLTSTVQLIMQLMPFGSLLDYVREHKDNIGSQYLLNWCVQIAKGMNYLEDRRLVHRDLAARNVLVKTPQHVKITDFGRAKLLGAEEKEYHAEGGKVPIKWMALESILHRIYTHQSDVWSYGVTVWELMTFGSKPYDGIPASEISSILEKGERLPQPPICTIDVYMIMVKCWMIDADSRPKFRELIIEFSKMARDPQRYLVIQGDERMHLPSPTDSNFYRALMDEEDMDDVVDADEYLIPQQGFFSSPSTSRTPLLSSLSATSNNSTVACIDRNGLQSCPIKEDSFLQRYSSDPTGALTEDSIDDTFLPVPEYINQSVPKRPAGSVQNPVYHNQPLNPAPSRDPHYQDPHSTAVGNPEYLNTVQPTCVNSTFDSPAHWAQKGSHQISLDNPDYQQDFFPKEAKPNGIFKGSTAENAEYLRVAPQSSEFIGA

On to `CCS(=O)(=O)N(C)c1c(Nc2nc(Nc3cc(C)c(N4CCC(N5CCN(C)CC5)CC4)cc3OC)ncc2Cl)ccc2nccnc12` [Compound I-114], for which the IC50 in assay [1], in assay [2], in assay [3], in assay [4], in assay [5] and in assay [6] was at most 50 nM in each case.
Regarding `CCc1cc(Nc2ncc(Cl)c(Nc3ccc4nccnc4c3N(C)S(=O)(=O)CC)n2)c(OC)cc1N1CCC(N2CCN(C)CC2)CC1` [Compound I-115], the IC50 in assay [1], in assay [2], in assay [3], in assay [4], in assay [5] and in assay [6] was at most 50 nM in each case.
On to `CCc1cc(Nc2ncc(Cl)c(Nc3ccc4nccnc4c3N(C)S(=O)(=O)CC)n2)c(OC(F)(F)F)cc1N1CCC(N2CCN(C)CC2)CC1` [Compound I-116], for which the IC50 was 50 to 500 nM in assay [1]; 50 to 500 nM in assay [2]; 50 to 500 nM in assay [3]; 50 to 500 nM in assay [4]; at most 50 nM in assay [5]; 50 to 500 nM in assay [6].
Consider `CCc1cc(Nc2ncc(Cl)c(Nc3ccc4nccnc4c3N(C)S(=O)(=O)CC)n2)c(OC)cc1N1CCC(N(C)C)CC1` [Compound I-117], for which the IC50 in assay [1], in assay [2], in assay [3], in assay [4], in assay [5] and in assay [6] was at most 50 nM throughout.
Take `CCc1cc(Nc2ncc(Cl)c(Nc3ccc4nccnc4c3N(C)S(=O)(=O)CC)n2)c(OC)cc1N1CCC(N(C)C)C1` (stereo not drawn) [Compound I-118]: the IC50 in assay [1], in assay [2], in assay [3], in assay [4], in assay [5] and in assay [6] was at most 50 nM throughout.
For the compound `CCc1cc(Nc2ncc(Cl)c(Nc3ccc4nccnc4c3N(C)S(=O)(=O)C3CC3)n2)c(OC)cc1N1CCC(N2CCN(C)CC2)CC1` [Compound I-120], the IC50 in assay [1], in assay [2], in assay [3], in assay [4], in assay [5] and in assay [6] was at most 50 nM throughout.
Consider `CCc1cc(Nc2ncc(Cl)c(Nc3ccc4nccnc4c3N(C)S(=O)(=O)C3CC3)n2)c(OC(F)(F)F)cc1N1CCC(N2CCN(C)CC2)CC1` [Compound I-121], for which the IC50 in assay [1], in assay [2], in assay [3], in assay [4], in assay [5] and in assay [6] was 50 to 500 nM throughout.
For the compound `CCc1cc(Nc2ncc(Cl)c(Nc3ccc4nccnc4c3N(C)S(=O)(=O)C3CC3)n2)c(OC)cc1N1CCC(N(C)C)CC1` [Compound I-122], the IC50 in assay [1], in assay [2], in assay [3], in assay [4], in assay [5] and in assay [6] was at most 50 nM throughout.
Turning to `CCc1cc(Nc2ncc(Cl)c(Nc3ccc4nccnc4c3N(C)S(=O)(=O)C3CC3)n2)c(OC)cc1N1CCC(N(C)C)C1` (stereo not drawn) [Compound I-123], the IC50 was 50 to 500 nM in assay [1]; 50 to 500 nM in assay [2]; 50 to 500 nM in assay [3]; at most 50 nM in assay [4]; at most 50 nM in assay [5]; 50 to 500 nM in assay [6].
For the compound `COc1cc(N2CCC(N3CCN(C)CC3)CC2)c(C)cc1Nc1ncc(Br)c(Nc2ccc3nccnc3c2N(C)S(=O)(=O)C(F)(F)F)n1` [Compound I-124], the IC50 in assay [1] was 500 to 2500 nM; in assay [2], 50 to 500 nM; in assay [3], 500 to 2500 nM; in assay [4] it was 50 to 500 nM; in assay [5], at most 50 nM; in assay [6] it was 50 to 500 nM.
Take `CCc1cc(Nc2ncc(Br)c(Nc3ccc4nccnc4c3N(C)S(=O)(=O)C(F)(F)F)n2)c(OC)cc1N1CCC(N2CCN(C)CC2)CC1` [Compound I-125]: the IC50 in assay [1] was 500 to 2500 nM; in assay [2], 50 to 500 nM; in assay [3], 50 to 500 nM; in assay [4], 50 to 500 nM; in assay [5], at most 50 nM; in assay [6], 50 to 500 nM.
Consider `CCc1cc(Nc2ncc(Br)c(Nc3ccc4nccnc4c3N(C)S(=O)(=O)C(F)(F)F)n2)c(OC(F)(F)F)cc1N1CCC(N2CCN(C)CC2)CC1` [Compound I-126], for which the IC50 was 500 to 2500 nM in assay [1]; 50 to 500 nM in assay [2]; 500 to 2500 nM in assay [3]; 500 to 2500 nM in assay [4]; 50 to 500 nM in assay [5]; 50 to 500 nM in assay [6].
As for `CCc1cc(Nc2ncc(Br)c(Nc3ccc4nccnc4c3N(C)S(=O)(=O)C(F)(F)F)n2)c(OC)cc1N1CCC(N(C)C)CC1` [Compound I-127], the IC50 in assay [1] is 500 to 2500 nM; in assay [2], 50 to 500 nM; in assay [3], 500 to 2500 nM; in assay [4], 50 to 500 nM; in assay [5], at most 50 nM; in assay [6] it was 50 to 500 nM.
For `CCc1cc(Nc2ncc(Br)c(Nc3ccc4nccnc4c3N(C)S(=O)(=O)C(F)(F)F)n2)c(OC)cc1N1CCC(N(C)C)C1` (stereo not drawn) [Compound I-128], the IC50 in assay [1] is 500 to 2500 nM; in assay [2], 50 to 500 nM; in assay [3], 500 to 2500 nM; in assay [4], 50 to 500 nM; in assay [5] it was at most 50 nM; in assay [6], 50 to 500 nM.
With `COc1cc(N2CCC(N3CCN(C)CC3)CC2)c(C)cc1Nc1ncc(Cl)c(Nc2ccc3nccnc3c2N(C)S(=O)(=O)C(F)(F)F)n1` [Compound I-129], the IC50 fell in the range of 500 to 2500 nM in assay [1]; 50 to 500 nM in assay [2]; 500 to 2500 nM in assay [3]; 500 to 2500 nM in assay [4]; 50 to 500 nM in assay [5]; 50 to 500 nM in assay [6].
With `CCc1cc(Nc2ncc(Cl)c(Nc3ccc4nccnc4c3N(C)S(=O)(=O)C(F)(F)F)n2)c(OC)cc1N1CCC(N2CCN(C)CC2)CC1` [Compound I-130], the IC50 in assay [1] was 50 to 500 nM; in assay [2] it was 50 to 500 nM; in assay [3], 50 to 500 nM; in assay [4], 50 to 500 nM; in assay [5], 50 to 500 nM; in assay [6] it was at most 50 nM.
As to `CCc1cc(Nc2ncc(Cl)c(Nc3ccc4nccnc4c3N(C)S(=O)(=O)C(F)(F)F)n2)c(OC(F)(F)F)cc1N1CCC(N2CCN(C)CC2)CC1` [Compound I-131], the IC50 was 500 to 2500 nM in assay [1]; 50 to 500 nM in assay [2]; 500 to 2500 nM in assay [3]; 500 to 2500 nM in assay [4]; 50 to 500 nM in assay [5]; 50 to 500 nM in assay [6].
On to `CCc1cc(Nc2ncc(Cl)c(Nc3ccc4nccnc4c3N(C)S(=O)(=O)C(F)(F)F)n2)c(OC)cc1N1CCC(N(C)C)CC1` [Compound I-132], for which the IC50 in assay [1] is 500 to 2500 nM; in assay [2], 50 to 500 nM; in assay [3] it was 500 to 2500 nM; in assay [4], 50 to 500 nM; in assay [5] it was at most 50 nM; in assay [6], 50 to 500 nM.
Consider `CCc1cc(Nc2ncc(Cl)c(Nc3ccc4nccnc4c3N(C)S(=O)(=O)C(F)(F)F)n2)c(OC)cc1N1CCC(N(C)C)C1` (stereo not drawn) [Compound I-133], for which the IC50 is 500 to 2500 nM in assay [1]; 50 to 500 nM in assay [2]; 500 to 2500 nM in assay [3]; 50 to 500 nM in assay [4]; at most 50 nM in assay [5]; 50 to 500 nM in assay [6].
